Experiments:
RPMI-8226 (Leukemia) = assay: NCI-60 screen (SRB, 48 h); conditions: Homo sapiens
SR (Leukemia) = assay: NCI-60 screen (SRB, 48 h); assay type: cell-based
OVCAR-4 (Ovarian cancer) = assay: NCI-60 screen (SRB, 48 h); assay type: cell-based; conditions: Homo sapiens
HOP-92 (NSC lung cancer) = assay: NCI-60 screen (SRB, 48 h); conditions: Homo sapiens
[1] = tested on: MDA-MB-468 (Breast cancer); assay: cells; conditions: Homo sapiens
LOX IMVI (Melanoma) = assay: NCI-60 screen (SRB, 48 h); assay type: cell-based; conditions: Homo sapiens
SK-MEL-28 (Melanoma) = assay: NCI-60 screen (SRB, 48 h); conditions: Homo sapiens
Ovarian Cancer subpanel = assay: NCI-60 screen, subpanel; conditions: Homo sapiens
ACHN (Renal cancer) = assay: NCI-60 screen (SRB, 48 h); conditions: Homo sapiens
[2] = tested on: NCI/ADR-RES (Ovarian cancer); assay: NCI-60 screen (SRB, 48 h); conditions: Homo sapiens
[3] = tested on: NCI-H460 (NSC lung cancer); assay: NCI-60 screen (SRB, 48 h); conditions: Homo sapiens
EKVX (NSC lung cancer) = assay: NCI-60 screen (SRB, 48 h); conditions: Homo sapiens
Breast cancer subpanel = assay: NCI-60 screen, subpanel; conditions: Homo sapiens
Colon Cancer subpanel = assay: NCI-60 screen, subpanel; conditions: Homo sapiens
SNB-75 (CNS cancer) = assay: NCI-60 screen (SRB, 48 h); conditions: Homo sapiens
RXF 393 (Renal cancer) = assay: NCI-60 screen (SRB, 48 h); conditions: Homo sapiens
U251 (CNS cancer) = assay: NCI-60 screen (SRB, 48 h)
T-47D (Breast cancer) = assay: NCI-60 screen (SRB, 48 h); conditions: Homo sapiens, T47D
SW-620 (Colon cancer) = assay: NCI-60 screen (SRB, 48 h); conditions: Homo sapiens
SK-OV-3 (Ovarian cancer) = assay: NCI-60 screen (SRB, 48 h); conditions: Homo sapiens
HL-60(TB) (Leukemia) = assay: NCI-60 screen (SRB, 48 h); assay type: cell-based; conditions: Homo sapiens
M14 (Melanoma) = assay: NCI-60 screen (SRB, 48 h); conditions: Homo sapiens
786-0 (Renal cancer) = assay: NCI-60 screen (SRB, 48 h); conditions: Homo sapiens
MOLT-4 (Leukemia) = assay: NCI-60 screen (SRB, 48 h); conditions: Homo sapiens
[4] = read-out: LC50 (the source's name)

In the case of `CC(C)=C1CCC=C2CC[C@]3(C)[C@H](CC[C@@H]4[C@@]5(C)CCCNC(C)(C)[C@@H]5CC[C@]43C)[C@H]21` [Compound 9], the GI50 (RPMI-8226 (Leukemia); RPMI-8226) is reported as 2060 nM, the IC (TGI) (RPMI-8226 (Leukemia); RPMI-8226, 48 h, read-out: TGI) is reported as 4.1 µM and the TGI (SR (Leukemia)) is reported as 3.16 µM. For the same compound, the GI50 (SR (Leukemia); Homo sapiens) was 1140 nM, the IC (TGI) (OVCAR-4 (Ovarian cancer); OVCAR-4, 48 h) was 3.6 µM and the GI50 (OVCAR-4 (Ovarian cancer); OVCAR-4, read-out: GI50) was 1990 nM. The GI50 (HOP-92 (NSC lung cancer); HOP-92) was 1390 nM, the IC (TGI) (HOP-92 (NSC lung cancer); HOP-92, 48 h, read-out: TGI) was 2.77 µM and the CC50 (HOP-92 (NSC lung cancer); HOP-92, read-out: LC50) was 5.52 µM. It also gave a GI50 ([1]; MDA-MB-468) of 1680 nM, an IC (TGI) ([1]; MDA-MB-468, 48 h, read-out: TGI) of 3.3 µM and a CC50 ([1]; MDA-MB-468, read-out: LC50) of 6.5 µM. For the same compound, the IC (TGI) (LOX IMVI (Melanoma); 48 h) was 3.01 µM, the activity at 10 µM (LOX IMVI (Melanoma); 48 h, 1 dose 10 µM, read-out: Growth % of the Most Sensitive Cell Lines) was -100% and the GI50 (LOX IMVI (Melanoma); read-out: GI50) was 1650 nM. For the same compound, the CC50 (LOX IMVI (Melanoma); [4]) was 5.49 µM, the GI50 (SK-MEL-28 (Melanoma); SK-MEL-28) was 1810 nM and the IC (TGI) (SK-MEL-28 (Melanoma); SK-MEL-28, 48 h, read-out: TGI) was 3.32 µM. It also gave a CC50 (SK-MEL-28 (Melanoma); SK-MEL-28, read-out: LC50) of 6.11 µM, an IC (TGI) (Ovarian Cancer subpanel; 48 h, read-out: TGI MG_MID) of 3.51 µM and a GI50 (Ovarian Cancer subpanel; read-out: GI50 MG_MID) of 1860 nM. The CC50 (Ovarian Cancer subpanel; read-out: LC50 MG_MID) was 6.19 µM, the GI50 (ACHN (Renal cancer)) was 1760 nM and the IC (TGI) (ACHN (Renal cancer); 48 h, read-out: TGI) was 3.14 µM. It also gave a CC50 (ACHN (Renal cancer); read-out: LC50) of 5.62 µM, a GI50 [2] of 1840 nM and an IC (TGI) ([2]; 48 h, read-out: TGI) of 3.52 µM. It also gave a CC50 ([2]; read-out: LC50) of 6.73 µM, a GI50 ([3]; NCI-H460) of 1480 nM and an IC (TGI) ([3]; NCI-H460, 48 h, read-out: TGI) of 3.09 µM. For the same compound, the CC50 ([3]; NCI-H460, read-out: LC50) was 6.45 µM, the GI50 (EKVX (NSC lung cancer)) was 1740 nM and the IC (TGI) (EKVX (NSC lung cancer); 48 h, read-out: TGI) was 3.38 µM. The CC50 (EKVX (NSC lung cancer); read-out: LC50) was 6.56 µM, the IC (TGI) (Breast cancer subpanel; 48 h, read-out: TGI MG_MID) was 3.49 µM and the GI50 (Breast cancer subpanel; read-out: GI50 MG_MID) was 1720 nM. The CC50 (Breast cancer subpanel; read-out: LC50 MG_MID) was 7.06 µM, the IC (TGI) (Colon Cancer subpanel; 48 h, read-out: TGI MG_MID) was 3.03 µM and the GI50 (Colon Cancer subpanel; read-out: GI50 MG_MID) was 1550 nM. It also gave a GI50 (SNB-75 (CNS cancer); SNB-75) of 1980 nM, an IC (TGI) (SNB-75 (CNS cancer); SNB-75, 48 h, read-out: TGI) of 3.84 µM and a CC50 (SNB-75 (CNS cancer); SNB-75, read-out: LC50) of 7.44 µM. It also gave a GI50 (RXF 393 (Renal cancer); RXF 393) of 1610 nM, an IC (TGI) (RXF 393 (Renal cancer); RXF 393, 48 h, read-out: TGI) of 3.1 µM and a CC50 (RXF 393 (Renal cancer); RXF 393, read-out: LC50) of 5.98 µM. The GI50 (U251 (CNS cancer); Homo sapiens, U-251) was 1690 nM, the IC (TGI) (U251 (CNS cancer); Homo sapiens, U-251, 48 h, read-out: TGI) was 3.17 µM and the “Growth % of the Most Sensitive Cell Lines” value (U251 (CNS cancer); U251, 1 dose 10 µM) was −90.81%. It also gave a GI50 (T-47D (Breast cancer)) of 1630 nM, an IC (TGI) (T-47D (Breast cancer); 48 h, read-out: TGI) of 3.46 µM and a GI50 (SW-620 (Colon cancer); SW-620) of 1660 nM. It also gave an IC (TGI) (SW-620 (Colon cancer); SW-620, 48 h, read-out: TGI) of 3.23 µM, a GI50 (SK-OV-3 (Ovarian cancer); SK-OV-3) of 1890 nM and an IC (TGI) (SK-OV-3 (Ovarian cancer); SK-OV-3, 48 h, read-out: TGI) of 3.5 µM. For the same compound, the CC50 (SK-OV-3 (Ovarian cancer); SK-OV-3, read-out: LC50) was 6.46 µM, the GI50 (HL-60(TB) (Leukemia)) was 1700 nM and the IC (TGI) (HL-60(TB) (Leukemia); 48 h) was 3.5 µM. It also gave a CC50 (HL-60(TB) (Leukemia); [4]) of 7.19 µM, a GI50 (M14 (Melanoma); M14) of 1730 nM and an IC (TGI) (M14 (Melanoma); M14, 48 h, read-out: TGI) of 3.26 µM. It also gave a CC50 (M14 (Melanoma); M14, read-out: LC50) of 6.12 µM, a GI50 (786-0 (Renal cancer); 786-0) of 1710 nM and an IC (TGI) (786-0 (Renal cancer); 786-0, 48 h, read-out: TGI) of 3.48 µM. The GI50 (MOLT-4 (Leukemia); MOLT-4) was 1590 nM and the IC (TGI) (MOLT-4 (Leukemia); MOLT-4, 48 h, read-out: TGI) was 3.7 µM.
